Laboratory results from patent US9718836B2 (priority 2014, dated 2017).
Values joined by “and” are separate entries in the source; they are usually repeats but may differ in a detail not shown here. Equal values may be shown once.

Key:
[1] = test system: antibodies in the antisera; type: binding, Balb/c mice
[2] = test system: antibodies in the antisera; type: binding, Balb/c mice; remark: listed apart in the source

Compound | Absorbance [1] | IC50 value of the antibody for the aflatoxin biosynthetic precursor ST [2] [ng/mL]
aflatoxin G2 | 1.03 and 1.04 and 1.05 and 1.01 and 1.09 and 1.02 and 1.10 | 
COc1cc2c(c3oc4cccc(O)c4c(=O)c13)[C@@H]1C=CO[C@@H]1O2 [aflatoxin biosynthetic precursor ST, Sterigmatocystin] |  | 0.41
aflatoxin B2 | 1.08 and 1.06 and 0.99 and 1.07 and 1.01 and 1.02 and 1.04 | 
aflatoxin G1 | 1.07 and 1.05 and 1.01 and 0.98 and 1.04 and 1.09 and 1.11 | 
